Test results from ChEMBL document CHEMBL1124518, “Nonsteroidal cardiotonics. 2. The inotropic activity of linear, tricyclic 5-6-5 fused heterocycles” (1989).

Assays:
[1] = organism: Rattus norvegicus; assay: Effective dose required to produce an increase in dP/dt5 by 1500 mmHg/s in rats; assay type: functional
[2] = organism: Felis catus; assay: Effective dose required to produce an increase in dP/dt5 by 1500 mmHg/s in cats; assay type: functional
[3] = system: Rattus norvegicus; assay: Maximum increase in dP/dt when administered intravenously in rats at 3 mg/kg dose.; assay type: functional; settings: route intravenous
[4] = system: Canis familiaris; assay: Maximum increase in dP/dt when administered intravenously in dogs at 0.03 mg/kg dose.; assay type: functional, Canis lupus familiaris; settings: route intravenous
[5] = system: Canis familiaris; assay: Amount of time during which increase in administered orally in conscious dogs at 1 mg/kg; assay type: functional, Canis lupus familiaris; settings: route oral
[6] = system: Canis familiaris; assay: Maximum increase in dP/dt60 when administered orally in dogs at dose 1 mg/kg; assay type: functional, Canis lupus familiaris; settings: route oral
[7] = organism: Canis familiaris; assay: Effective dose required to produce an increase in dP/dt5 by 1500 mmHg/s in dogs; assay type: functional, Canis lupus familiaris
[8] = system: Canis familiaris; assay: Time after which maximum increase in contractility was observed when administered orally in conscious dogs at 1 mg/kg; assay type: functional, Canis lupus familiaris; settings: route oral
[9] = system: Rattus norvegicus; assay: Maximum increase in dP/dt when administered intravenously in rats at 1 mg/kg dose.; assay type: functional; design: unit not given here; settings: route intravenous
[10] = system: Felis catus; assay: Maximum increase in dP/dt when administered intravenously in cats at 0.1 mg/kg dose.; assay type: functional; settings: route intravenous
[11] = system: Canis familiaris; assay: Maximum increase in dP/dt when administered intravenously in dogs at 1 mg/kg dose.; assay type: functional, Canis lupus familiaris; settings: route intravenous
[12] = system: Rattus norvegicus; assay: Maximum increase in dP/dt when administered intravenously in rats at 1 mg/kg.; assay type: functional; settings: route intravenous
[13] = system: Rattus norvegicus; assay: Maximum increase in dP/dt when administered intravenously in rats at 10 mg/kg dose.; assay type: functional; design: unit not given here; settings: route intravenous
[14] = system: Canis familiaris; assay: Maximum increase in dP/dt when administered intravenously in dogs at 0.3 mg/kg dose.; assay type: functional, Canis lupus familiaris; settings: route intravenous
[15] = system: Felis catus; assay: Maximum increase in dP/dt when administered intravenously in cats at 0.3 mg/kg.; assay type: functional; settings: route intravenous
[16] = system: Felis catus; assay: Maximum increase in dP/dt when administered intravenously in cats at 3 mg/kg dose.; assay type: functional; settings: route intravenous
[17] = system: Rattus norvegicus; assay: Maximum increase in dP/dt when administered intravenously in rats Value in parenthesis denotes dose at which test performed; assay type: functional
[18] = system: Rattus norvegicus; assay: Maximum increase in dP/dt when administered intravenously in rats at 3 mg/kg.; assay type: functional; settings: route intravenous
[19] = system: Canis familiaris; assay: Maximum increase in dP/dt when administered intravenously in dogs at 1 mg/kg.; assay type: functional, Canis lupus familiaris; settings: route intravenous
[20] = system: Felis catus; assay: Maximum increase in dP/dt when administered intravenously in cats at 0.03 mg/kg dose.; assay type: functional; settings: route intravenous
[21] = system: Canis familiaris; assay: Maximum increase in dP/dt when administered intravenously in dogs at 0.1 mg/kg.; assay type: functional, Canis lupus familiaris; settings: route intravenous
[22] = system: Canis familiaris; assay: Time after which maximum increase in contractility was observed when administered orally in conscious dogs at 0.5 mg/kg; assay type: functional, Canis lupus familiaris; settings: route oral
[23] = system: Canis familiaris; assay: Amount of time during which increase in administered orally in conscious dogs at 0.5 mg/kg; assay type: functional, Canis lupus familiaris; settings: route oral
[24] = system: Canis familiaris; assay: Maximum increase in dP/dt60 when administered orally in dogs at dose 0.5 mg/kg; assay type: functional, Canis lupus familiaris; settings: route oral

SMILES	ED1.5 [1]	ED1.5 [2]	Duration [5]	also measured
COc1ccccc1-c1nc2cc3c(cc2[nH]1)C(C)(C)C(=O)N3	>3 mg/kg	>3 mg/kg		
CC1(C)C(=O)Nc2cc3[nH]c(-c4nc[nH]n4)nc3cc21	0.1 mg/kg	0.02 mg/kg		Max [3]: 3.1 mHg s-1
CC1(C)C(=O)Nc2cc3[nH]c(-c4cnsn4)nc3cc21	0.007 mg/kg	0.004 mg/kg	3 h	Max [4]: 2.3 mmHg s-1; Max [6]: 3 mmHg s-1; ED1.5 [7]: 0.008 mg/kg; Time [8]: 10 min; Max [9]: 3.5; Max [10]: 2.6 mmHg s-1
CC1(C)C(=O)Nc2cc3[nH]c(-c4ccncc4)cc3cc21	0.16 mg/kg	0.11 mg/kg		Max [3]: 3.4 mHg s-1
CC(C)c1nc2cc3c(cc2[nH]1)C(C)(C)C(=O)N3	0.22 mg/kg	0.09 mg/kg	3 h	Max [11]: 1.9 mHg s-1; Max [12]: 2.3 mmHg s-1; Max [6]: 2.2 mmHg s-1; ED1.5 [7]: 0.46 mg/kg; Time [8]: 30 min
CC1(C)C(=O)Nc2cc3[nH]c(-c4cnc5ccccc5c4)nc3cc21	>3 mg/kg			
CC1(C)C(=O)Nc2cc3[nH]c(-c4ccc(-n5ccnc5)cc4)nc3cc21	1 mg/kg	0.25 mg/kg		Max [13]: 2.8
CC1(C)C(=O)Nc2cc3[nH]c(-c4c[nH]cn4)nc3cc21	0.12 mg/kg		2 h	Max [11]: 2.7 mHg s-1; ED1.5 [7]: 0.07 mg/kg; Time [8]: 120 min
Cc1nc2cc3nc(O)oc3cc2[nH]1	>3 mg/kg			
CN(C)c1ccc(-c2nc3cc4c(cc3[nH]2)C(C)(C)C(=O)N4)cc1	>3 mg/kg			
Cc1cc2cc3c(cc2[nH]1)NC(=O)C3(C)C	>3 mg/kg			
CC1(C)C(=O)Nc2cc3[nH]c(S)nc3cc21	0.55 mg/kg	0.06 mg/kg		Max [3]: 3.5 mHg s-1
CC1(C)C(=O)Nc2cc3[nH]c(-c4cccs4)nc3cc21	0.12 mg/kg	0.07 mg/kg		
CC1(C)C(=O)Nc2cc3[nH]c(-c4ccco4)nc3cc21	0.07 mg/kg	0.06 mg/kg	2 h	Max [14]: 2.7 mHg/s; ED1.5 [7]: 0.06 mg/kg; Time [8]: 40 min; Max [3]: 2.9 mHg s-1
Cn1c(-c2ccncc2)nc2cc3c(cc21)NC(=O)C3(C)C	>3 mg/kg			
CCCc1nc2cc3c(cc2[nH]1)C(C)(C)C(=O)N3	0.17 mg/kg	0.12 mg/kg		Max [15]: 2 mmHg s-1; Max [9]: 2.5
C/C=C/c1nc2cc3c(cc2[nH]1)C(C)(C)C(=O)N3	>3 mg/kg			
CC1(C)C(=O)Nc2cc3[nH]c(-c4ccc[nH]4)nc3cc21	0.45 mg/kg	0.07 mg/kg		Max [11]: 1.9 mHg s-1; Max [13]: 2.6; ED1.5 [7]: 0.32 mg/kg; Max [16]: 2.3 mmHg s-1
CC1(C)C(=O)Nc2cc3[nH]c(-c4ccccc4)nc3cc21	0.37 mg/kg	0.15 mg/kg	0 h	Max [13]: 4.2; Max [16]: 3 mmHg s-1
CC1(C)C(=O)Nc2cc3[nH]nnc3cc21	0.18 mg/kg			Max [17]: 2.6 mmHg s-1
CCn1c(O)nc2cc3[nH]c(-c4ccncc4)nc3cc21	0.05 mg/kg	0.007 mg/kg	0 h	Max [18]: 2.3 mmHg s-1; Max [10]: 3.1 mmHg s-1
Cn1c(O)nc2cc3[nH]c(-c4ccncc4)nc3cc21	0.33 mg/kg	0.01 mg/kg	0 h	Max [13]: 2.6; Max [19]: 2.9 mmHg s-1; ED1.5 [7]: 0.12 mg/kg
COc1ccc(-c2nc3cc4c(cc3[nH]2)C(C)(C)C(=O)N4)cc1	>3 mg/kg			
CC1(C)C(=O)Nc2cc3[nH]c(-c4ccnnc4)nc3cc21	0.04 mg/kg	0.01 mg/kg	5 h	Max [20]: 2.4 mmHg s-1; Max [6]: 2.3 mmHg s-1; ED1.5 [7]: 0.035 mg/kg; Max [21]: 2.6 mmHg s-1; Time [8]: 150 min
CC1(C)C(=O)Nc2cc3[nH]c(-c4ccc(O)cc4)nc3cc21	>3 mg/kg			
CC1(C)C(=O)Nc2cc3[nH]c(-c4cncnc4)nc3cc21	0.045 mg/kg	0.02 mg/kg		Max [3]: 3.1 mHg s-1
CC1(C)C(=O)Nc2cc3[nH]c(O)nc3cc21	0.13 mg/kg	0.08 mg/kg	> 6 h	Time [22]: 60 min; Max [14]: 2 mHg/s; Duration [23]: 6 h; Max [24]: 1.6 mHg s-1; ED1.5 [7]: 0.12 mg/kg; Max [16]: 2.9 mmHg s-1; Time [8]: 45 min; Max [9]: 3
